According to patent US8372880B2, “Compositions and methods using same for treating amyloid-associated diseases” (Tel Aviv University Future Technology Development L.P., priority 2003, dated 2013):
Where “and” joins values, the source holds several entries; their conditions need not be identical. Equal entries are not always repeated. Where two headings read alike, the source gives them in different places.

Assays:
hIAPP1-37 = target: T1, hIAPP1-37 (Homo sapiens, UniProt P10997); assay: Thioflavin T fluorescence assay of fibril formation; format: biochemical
T1 construct: purchased Calbiochem (CalBiochem Calif., USA); host or cells: solid-phase chemical synthesis
T1 sequence (P10997 34-70 limits assumed): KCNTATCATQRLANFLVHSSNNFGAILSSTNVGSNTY
Protocol: Fibrillization of hIAPP1-37 was monitored by Thioflavin T dye binding assay. hIAPP1-37 stock solution was diluted to a final concentration of 4 μM in 10 mM sodium acetate buffer (pH 6.5) with or without inhibitor, and a final HFIP concentration of 1% (vol). […] In every measurement ThT was added to a final concentration of 3 μM and measurements were carried out using Perkin Elmer (excitation 450 nm, 2.5 nm slit; emission 480 nm 10 nm slit). […] Background was subtracted from all samples.
Thioflavin T (ThT) is commonly used for detecting the level of amyloid formation. hIAPP1-37 solution was prepared as described above. Following incubation in the presence or absence of phenol red and addition of 3 μM ThT to each sample, fluorescence was measured.
Fibrillization of hIAPP1-37 was monitored by Thioflavin T (ThT) dye binding assay, as described above, using an inhibitor concentration of 40 μM or 4 μM.

Caco-2 cells [1] = details: for recovery at experiment end point: 90 minutes
Protocol: Cells at passage 68 were used in these studies. Caco-2 cells were grown in high D-glucose DMEM medium supplemented with 1% L-glutamine, 1% nonessential amino acids, 1% sodium pyruvate, 1% penicillinstreptomycin and 10% fetal bovine serum.
Cells (passage 68) were harvested after 95% confluence and seeded at a density of 85,000 cells per polycarbonate membranes (0.4 μm pore size and a surface area of 0.33 cm^2) inserts. Cells on inserts were cultured for 10 days.
Transport studies: Test substances transport across Caco-2 monolayers was investigated in ‘apical to basolateral’ direction (n=2), at two time points (45 and 90 minutes).
Prior to the experiment, the culture medium was removed; cells were washed twice with 150 μl apical buffer and 600 μl basolateral buffer (containing 25 mM D-glucose, 20 mM HEPES biological buffer, 1.25 mM CaCl2, 0.5 mM MgCl2, adjusted to pH 7.4 with KOH) and were incubated for 30 minutes at 37° C., 45 RPM, with the same buffers.
Transport studies were performed at 37° C., with shaking at 45 RPM with either the tested compounds or standards (n=2). At each time point, aliquot of 120 μl Basolateral sample was drawn from each insert. For the radioactive marker Mannitol, 20 μl duplicate aliquots were drawn at each time point. […] At endpoint (90 minutes), the whole volume of the apical and basolateral chambers was collected.
Data Recording: Substance samples and propranolol standard samples were analyzed using HPLC (see below for analyses details). [^3H]-Mannitol samples were subjected to analysis by liquid scintillation counting in a Packard TopCount NXT. The results were obtained in CPM.
Papp Calculations: Apparent permeability coefficients (Papp) of tested compounds and standards were calculated from the following equation: Papp(t)=(CtV/t)×(1/C0A) where C0 is the initial concentration (at t=0) of the compound on the donor (apical side); Ct is the concentration at the calculated time point (t) in the receiver (basolateral) chamber; V is receiver chamber volume; A is the surface area of the monolayer; and t is the elapsed time.
Compound and standards Recovery: At the last time point of the experiment (90 minutes), basolateral and apical amounts values were measured and recovery (%) of the tested compound or standard was calculated according to the following equation: Recovery %=(C90 min×Vbasolateral)+(C90 min×Vapical)/C0×Vapical
HPLC analyses: HPLC analyses were performed using a Waters 2790 HPLC system, equipped with PDA 996 detector (Waters).

Caco-2 cells [2] = system: Caco-2 cells
Protocol: LDH Assay: 100 μl of cells supernatant were removed from the basolateral chamber at the end of transport experiment. LDH release was assayed according to the manufacturer instructions using cytotoxicity detection kit (Roche, Cat. No. 1 644 793).
Specifically, an increase in the amount of dead or plasma membrane-damaged cells results in release of lactate dehydrogenase (LDH) enzyme to the surrounding buffer. The enzymatic activity of LDH is measured in a colorimetric assay. A surfactant that damages cell membranes is used as a positive control.
Short term damage—LDH Release: LDH activity in basolateral buffer from inserts of each group (n=2) was measured in a colorimetric assay as described hereinabove. The positive control glycocholate was previously assayed and is shown for comparison.

βTC-tet cells = assay: MTT cell viability assay, hIAPP cytotoxicity; format: cell-based, murine; details: 4 μM hIAPP1-37, 24 hrs, phenol red in medium, 50% without phenol red
Protocol: βTC-tet cells [Fleischer, N., Chen C., Surana, M., Leiser, M., Rossetti, L., Pralong, W. and Efrat, S. (1998) Functional analysis of a conditionally transformed pancreatic beta-cell line, Diabetes 47, 1419-1425] or PC12 cells (ATCC # CRL-1721) were plated on 24-well plates (2-10^5/well) or on 96-well plates (1-10^4/well) respectively, and allowed to adhere for 24 hours. Synthetic hIAPP1-37 stock solution was diluted to a final concentration of 4 μM in serum free growth medium [Fleischer (1998) Supra] containing DMEM with or without phenol red. Immediately following dilution, samples were centrifuged at 4° C. for 20 minutes at 20,000 g, and the supernatant was bubbled with nitrogen for 30 min to evaporate residual HFIP. Cells were washed twice with PBS and incubated with the supernatant for 24 hrs. MTT (Sigma M-2128) was then added for 3 hrs, followed by addition of lysis buffer and incubation over night. Assay was effected according to Manufacturer's instructions. Samples were read at 570 nm. Cell viability was calculated in comparison to cells incubated in the absence of hIAPP in medium with or without phenol red, respectively.
The ability of phenol red to modulate cytotoxicity effect of hIAPP amyloid assemblies on pancreatic β cells in culture was addressed. […]

hIAPP20-29 [3] = target: T2, hIAPP20-29 (Homo sapiens, UniProt P10997); assay: Kinetic aggregation assay (turbidity); format: biochemical; details: 1 mM peptide, 40 mM inhibitor, Tris pH 7.2, 4% DMSO
T2 construct: purchased Peptron, Inc. (Taejeon, Korea); host or cells: solid-phase chemical synthesis
Protocol: Stock solutions of hIAPP22-29 and hIAPP20-29 peptide were prepared by dilution of lyophilized peptides into 10 mM Tris-HCl (pH 7.2) buffer to a final concentration of 1 mM peptide and 4% DMSO. Turbidity data were collected at 405 or 560 nm at room temperature. A buffer solution containing the same amount of DMSO as the tested samples was used as blank. Turbidity was measured using disposable UVette cuvettes (Eppendorf, Germany) and a Scinco S-3100 spectrophotometer.
The core amyloidogenic fragments of hIAPP (hIAPP22-29, hIAPP20-29) aggregate in an aqueous solution. Such an aggregation behavior was served as a preliminary assay for amyloid formation.
In order to evaluate the ability of phenol red to inhibit amyloid formation, the aggregation of 1 mM hIAPP22-29 and hIAPP20-29 (SEQ ID NO: 1 and NO: 2, respectively) was examined in the absence or presence of 40 mM phenol red. To verify the specificity of phenol red molecule towards hIAPP core peptides, a very similar molecule—phenolphthaleine, which differs only by the lack of the sulfon group, was used as control (FIG. 7).

hIAPP20-29 [4] = target: T2, hIAPP20-29; assay: Transmission electron microscopy of fibrils; format: biochemical; details: hIAPP20-29 with inhibitor, 24 hr incubation
Protocol: 10 μL samples of hIAPP22-29 or hIAPP20-29 from the aggregation assay, and hIAPP1-37 from the fluorescence assay were placed on 400-mesh copper grids (SPI supplies, West Chester Pa.) covered by carbon-stabilized Formvar film. After 1 minute, excess fluid was removed, and the grids were negatively stained with 2% uranyl acetate in water for another two minutes. Samples were viewed in a JEOL 1200EX electron microscope operating at 80 kV.
Samples of hIAPP22-29 and hIAPP20-29 taken from the aggregation assay (described in Example 3) were visualized using transmission electron microscopy. As is shown in FIG. 4a, distinct and well-defined amyloid fibers were observed 3 and 72 hours after initiation of aggregation in both samples of the hIAPP22-29 peptide, with a minor increase in fiber density and width following 72 hours. […] Same results were obtained with the hIAPP20-29 peptide after 24 hr incubation (FIG. 4b) in the presence of phenol red inhibitor. No inhibition was observed using phenolphthaleine under the same conditions and fibrillar structures were evident on the TEM grid.

[5] = Pharmacokinetics in mice, oral administration
Protocol: (§1) Male mice (ICR), 5 weeks of age, weighing 27-32 grams at study initiation were used. A total of sixteen animals were tested in each set of experiments, divided to 8 groups, 2 animals in each group. Animals were acclimatized for 5-7 days. All test animals was kept under environmental controlled housing conditions throughout the entire study period, and maintained in accordance with Harlan Biotech Israel (HBI) approved standard operation procedures (SOP's).
Administration to test animals was performed orally, following food deprivation of about 3.5-5 hours, by the use of gavage needle made of stainless steel which was introduced directly to the stomach.
Dosing solutions were prepared as described hereinabove for the I.V. administration.
Blood samples were taken, as described hereinabove, at the following time points: 30, 45, 60, 120, 180, 240, 300 and 360 minutes post dosing, two animals per time point, by retro orbital sinus bleeding under CO2 anesthesia.
(§2) Analysis was performed in Analyst Ltd., using LC/MS/MS method.
(§3) The chromatographic separation was achieved on a Gemini C1 8 column (50×2.0 mm, 5 μm), using 50:50 acetonitrile:water solution containing 0.1% NH4OH as the mobile phase, at a flow rate of 0.3 ml/minute.
(§4) All samples were analyzed by the Micromass Quattro Pt triple-quadrupole mass selective detector equipped with an electrospray ionization source. […] The system includes a 2795 HT Waters HPLC and Masslynx v.4.0 software. Quanlynx v.4.0 software was used for calculation.
(§5) For calculation of phenol red concentration in samples, weighted linear regression curves (1/x^2) were calculated from response of analyte versus calibration standard concentration. The weighted linear regression correlation coefficient was grater than 0.99.
(§6) K Parameters Calculations: PK parameters were calculated using Winnonlin Pro 4.01 software (Pharsight).

[6] = Pharmacokinetics in mice, intravenous administration; details: for PF3 Concentration / Phenol red Concentration, Analyzed: mice plasma
Protocol: as §1
A single slow intravenous injection (over a period of approximately one minute) was administered into one of the tail veins of each animal.
Dosing solutions were prepared in a co-solvent vehicle system containing DMA:PEG400:Saline 25:40:35 respectively (e.g., each 1 ml consists of 0.25 ml DMA, 0.4ml PEG400 and 0.35 ml Saline).
Dosing solutions were freshly and identically prepared prior to dosing, as deemed necessary.
Blood samples were taken at the following time points: pre-dosing (time 0), 5, 15, 30, 60, 90, 120 and 300 minutes post dosing, two animals per time point, by retro orbital sinus bleeding under CO2 anesthesia. Individual blood samples of at least 0.4 ml whole blood were collected into pre-labeled lithium heparin coated tubes. Plasma separation was made as soon as possible after collection, by centrifugation at 2500G for 15 minutes. After centrifugation supernatant was transferred to eppendorff tube (1.5 ml) pre-labeled with the appropriate animal number, study number and time post dosing. Plasma samples were kept at about −20° C.
as §2, §3, §4, §5, §6

[7] = 4 μM hIAPP1-37, 40 μM inhibitor
[8] = I.V. PF3, 5 minutes post dosing
[9] = I.V. PF3, 15 minutes post dosing
[10] = I.V. PF3, 30 minutes post dosing
[11] = I.V. PF3, 60 minutes post dosing
[12] = I.V. PF3, 125 minutes post dosing
[13] = I.V. PF3, 300 minutes post dosing
[14] = phenol red plasma profile, mice, I.V. PF3
[15] = phenol red plasma profile, mice, I.V. PF3 .25 mg/kg

Which results are given for `COc1ccc(C2(c3ccc(OC)cc3)OS(=O)(=O)c3ccccc32)cc1` [PF4, dimethoxy phenol red]?
inhibition of hIAPP1-37 fibril formation (ThT fluorescence) (hIAPP1-37; [7]): reduced inhibition effect relatively to the phenol red molecule; inhibition of hIAPP1-37 fibril formation (ThT fluorescence) (hIAPP1-37; 40 μM inhibitor, sample not centrifuged): more evident; recovery at experiment end point (Caco-2 cells [1]; 0.2 mM concentration): 105%±31%; recovery at experiment end point (Caco-2 cells [1]; 1 mM concentration): 123%±48%; detection at the basolateral chamber (Caco-2 cells [1]; both tested concentrations): not detected; cytotoxicity (LDH activity in basolateral buffer) (Caco-2 cells [2]; CaCo-2 inserts after transport experiment): negligible

With `Nc1c(/N=N/c2ccc(-c3ccc(/N=N/c4cc(S(=O)(=O)O)c5ccccc5c4N)cc3)cc2)cc(S(=O)(=O)O)c2ccccc12` [congo red, Congo red, reference compound] as the compound, how does the “inhibition of hIAPP1-37 fibril formation (ThT fluorescence)” value (hIAPP1-37; green tea polyphenols experiment, 48 hr to 12 days) read?
The value was “inhibitory effect”.

For `O=S1(=O)OC(c2ccc(O)cc2)(c2ccc(O)cc2)c2ccccc21` [phenol red], which IC50 (hIAPP1-37; 4 μM hIAPP1-37, gradual concentration of phenol red, read-out: IC50 of inhibition of fibril formation (ThT fluorescence)) is on record?
Its IC50 is ~2500 nM.

What about the “inhibition level of fibril formation (ThT end point)” value (hIAPP1-37; phenol red concentration of 20 μM and above, after one week of incubation) of the same compound?
The value was “about 90%”.

What about the “cell viability (MTT)” value (βTC-tet cells) of the same compound?
The value was 80%.

Which results are given for `O=C1OC(c2ccc(O)cc2)(c2ccc(O)cc2)c2ccccc21` [phenolphthaleine]?
aggregation of hIAPP20-29 (turbidity) (hIAPP20-29 [3]): No inhibition effect; fibril morphology by TEM (hIAPP20-29 [4]): No inhibition; fibril morphology by TEM (hIAPP20-29 [4]; listed as phenolephthaleine): no inhibition effect

Which results are given for diacetoxy phenol red [PF3]?
inhibition of hIAPP1-37 fibril formation (ThT fluorescence) (hIAPP1-37; [7]): reduced inhibition effect relatively to the phenol red molecule; recovery at experiment end point (Caco-2 cells [1]; 1 mM concentration): 53%±5%; permeability grading (Caco-2 cells [1]; CaCo-2, apical to basolateral): low-medium range; Papp values compared to standards (Caco-2 cells [1]; apical to basolateral, 45 and 90 minutes): higher than mannitol (a marker of paracellular transport) Papp values and lower than propranolol; detection of transport (Caco-2 cells [1]; higher concentration (0.1 mM)): detected; detection in the basolateral chamber (Caco-2 cells [1]; lower concentration (0.02 mM), 45 and 90 minutes): not detected; LDH activity in basolateral buffer (Caco-2 cells [2]; 0.1 mM, only one of the inserts, not repeated, attributed to a factor other than PF3): increase in LDH activity was detected; presence of the pro-drug PF3 in plasma ([5]; following oral administration): not detected; intestinal absorption ([5]; oral administration): clearly absorbed in the intestine; Half Life ([5]; phenol red plasma profile, P.O. PF3 […]): 32 min; F, Bioavailability ([5]; phenol red plasma profile, P.O. PF3 […] vs I.V.): 16%; PF3 Concentration [6, 8]: n/d (not detected and denotes a concentration lower than 5 ng/ml); Phenol red Concentration, Analyzed [6, 8]: >20 µg/mL; PF3 Concentration [6, 9]: n/d (not detected and denotes a concentration lower than 5 ng/ml); Phenol red Concentration, Analyzed [6, 9]: >20 µg/mL; PF3 Concentration [6, 10]: n/d (not detected and denotes a concentration lower than 5 ng/ml); Phenol red Concentration, Analyzed [6, 10]: >20 µg/mL; PF3 Concentration [6, 11]: n/d (not detected and denotes a concentration lower than 5 ng/ml); Phenol red Concentration, Analyzed [6, 11]: 4.12 µg/mL and 4.33 µg/mL; PF3 Concentration ([6]; I.V. PF3, 90 minutes post dosing): n/d (not detected and denotes a concentration lower than 5 ng/ml); PF3 Concentration [6, 12]: n/d (not detected and denotes a concentration lower than 5 ng/ml); Phenol red Concentration, Analyzed [6, 12]: 0.76 µg/mL; PF3 Concentration [6, 13]: n/d (not detected and denotes a concentration lower than 5 ng/ml); Phenol red Concentration, Analyzed [6, 13]: 0.22 µg/mL and 0.29 µg/mL; presence of the pro-drug PF3 in plasma ([6]; mice, following I.V. administration, even after 5 minutes): not observed; AUC (area under the curve) [6, 14]: 2232 µg·min/mL; Volume of distribution (Vss) [6, 14]: 0.367 L/kg; Clearance [6, 15]: 11 mL/min/kg; Half Life [6, 15]: 40 min
